Experimental data from patent US8178506B2, “Oligomeric compounds and compositions for use in modulation of small non-coding RNAs” (Regulus Therapeutics Inc., priority 2003, dated 2012).
In the oligonucleotide strings, read from the 5' end, every base follows the letter of its sugar. An asterisk marks phosphorothioate; unmarked linkages are phosphodiester. Other units and linkages are bracketed, terminal groups are in braces. A string of capitals states the bases alone. e = 2'-O-(2-methoxyethyl) (MOE); [5mC] = 5-methylcytosine; d = 2'-deoxy (DNA)

Columns and labels:
mir-30a pri-miRNA = assay: mir-30a luciferase reporter (pGL3C-M30-4X) assay in 293T cells; assay type: cell-based, human; settings: for percent control luciferase expression: 150 nM oligomeric compound, then mir-30a pri-miRNA mimic 200 nM, pGL3C-M30-4X normalized to pRL-CMV; for reversing the mir-30a miRNA-mediated silencing of luciferase reporter: 150 nM, then mir-30a pri-miRNA mimic
Text: In one embodiment of the invention, oligomeric compounds targeting the hairpin structure of mir-30a pri-miRNA were designed and tested for their effects on miRNA signaling in 293T cells (American Type Culture Collection (Manassas, Va.)).
A synthetic DNA fragment comprised of four tandem repeats of the target site for mir-30a was cloned into the vector pGL3-C (purchased from Promega Corp., Madison Wis.) at the unique XbaI site (pGL3C-M30-4X). This places the target site in the 3′UTR of the luciferase reporter vector. An oligomeric compound mimicking the mir-30a pri-miRNA ([…] […], herein incorporated as SEQ ID NO: 1749) was in vitro transcribed using T7 RNA polymerase and a DNA template produced by PCR (the T7 promoter is shown in bold).
On the day prior to the experiment 24-well plates were seeded with 293T cells at 50% confluency. The following morning cells were treated with oligomeric compounds targeted to the mir-30a pri-miRNA mimic. All of the compounds are 20 nucleobases in length having either a phosphorothioate backbone throughout (PS) or a phosphodiester backbone throughout (PO). […] All cytidine residues are 5-methylcytidines. The remaining compounds in the table have 2′-methoxyethoxy (MOE) nucleotides throughout with either a phosphorothioate (PS) or phosphodiester (PO) internucleoside linkages.
Cells were washed once with PBS then oligomeric compounds were added to triplicate wells at 150 nM in OPTI-MEM™ media and 4.5 μl/ml LIPOFECTIN™ reagent (Invitrogen Corporation, Carlsbad, Calif.). After 3 hours, the media was removed, and the cells were treated with the mir-30a pri-miRNA mimic at 200 nM in OPTI-MEM™ with 6 μl/ml LIPOFECTIN™ reagent. After 3 hours the media was removed from the cells. The reporter plasmid, pGL3C-M30-4X, was then transfected using SuperFect reagent. 20 μg of pGL3C-M30-4X and 2 μg of pRL-CMV, a plasmid expressing Renilla luciferase, were suspended in 600 μL of serum-free DMEM to which 120 μl of Superfect was added. After a 5 minute incubation, 6 mls of DMEM+10% FCS was added. 125 μL of the plasmid/SuperFect suspension was added to each well. After a 2 hour incubation cells were washed and fresh growth media added. Cells were incubated overnight.
The following morning the media was removed and the cells were lysed in 120 μL passive lysis buffer (PLB; Promega). 40 μL of the lysate was then assayed for Photinus (PL) and Renilla (RL) luciferases using a Dual Luciferase Assay kit (Promega) according to the manufacturer's protocol. The results below are given as percent pGL3C-M30-4× expression (PL) normalized to pRL-CMV expression (RL). The 20-nucleobase oligonucleotide random-mer ISIS Number 29848 was used as a negative control.

IL-12 mRNA = IL-12 mRNA in LPS-activated primary murine macrophages; assay type: cell-based, mouse; settings: normalized to LPS-treated cells without oligomeric compound
HuVECs = assay: Endothelial tube formation assay in HuVECs; settings: 75 nM oligomeric compound, Table 59

Substance | percent control luciferase expression (mir-30a pri-miRNA) [percent control] | other results
327874 (antisense eG*e[5mC]*eT*eG*e[5mC]*eA*eA*eA*e[5mC]*eA*eT*e[5mC]*e[5mC]*eG*eA*e[5mC]*eT*eG*eA*eA*eA*eG) [compound 327874] | 66 | IL-12 mRNA expression, −IFN % UTC (IL-12 mRNA; 300 nM oligomeric compound and LPS, no IFN-gamma pretreatment, single experiment): 202 % UTC; IL-12 mRNA expression, +IFN % UTC (IL-12 mRNA; 300 nM oligomeric compound, stimulation with IFN-gamma and LPS, average of 2 experiments): 15 % UTC; % Activity Relative to UTC (tube formation) (HuVECs): 46.7%
328078 (antisense e[5mC]*e[5mC]*e[5mC]*eA*eT*d[5mC]*dT*dG*dT*dG*dG*d[5mC]*dT*dT*d[5mC]*eA*e[5mC]*eA*eG*e[5mC]) [compound 328078] | 63 | –
328080 (antisense TGAAAGCCCATCTGTGGCTT; all 2'-MOE, all phosphorothioate, methylation of C not given here) [compound 328080] | 72 | –
328081 (antisense eT*eG*eA*eA*eA*dG*d[5mC]*d[5mC]*d[5mC]*dA*dT*d[5mC]*dT*dG*dT*eG*eG*e[5mC]*eT*eT) [compound 328081] | 80 | –
328085 (antisense CATCTGTGGCTTCACAGCTT; all 2'-MOE, all phosphorothioate, methylation of C not given here; designed as pseudo half-knot compound) [compound 328085] | 72 | –
328086 (antisense e[5mC]*eA*eT*e[5mC]*eT*dG*dT*dG*dG*d[5mC]*dT*dT*d[5mC]*dA*d[5mC]*eA*eG*e[5mC]*eT*eT) [compound 328086] | 95 | –
328087 (antisense AAGCCCATCTGTGGCTTCAC; all 2'-MOE, all phosphorothioate, methylation of C not given here; pseudo half-knot design targeting pri-miRNA hairpin) [compound 328087] | 83 | –
328088 (antisense eA*eA*eG*e[5mC]*e[5mC]*d[5mC]*dA*dT*d[5mC]*dT*dG*dT*dG*dG*d[5mC]*eT*eT*e[5mC]*eA*e[5mC]) [compound 328088] | 107 | –
ISIS 328086: 5-10-5 2′-MOE gapmer, pseudo half-knot compound targeting the mir-30a pri-miRNA (antisense e[5mC]*eA*eT*e[5mC]*eT*dG*dT*dG*dG*d[5mC]*dT*dT*d[5mC]*dA*d[5mC]*eA*eG*e[5mC]*eT*eT; pseudo half-knot compound) | – | reversing the mir-30a miRNA-mediated silencing of luciferase reporter (mir-30a pri-miRNA): restoring luciferase reporter expression to near control levels
ISIS 328087: 2′-MOE throughout; pseudo half-knot compound targeting the mir-30a pri-miRNA (antisense AAGCCCATCTGTGGCTTCAC; all 2'-MOE, all phosphorothioate, methylation of C not given here; pseudo half-knot design targeting pri-miRNA hairpin) | – | reversing the mir-30a miRNA-mediated silencing of luciferase reporter (mir-30a pri-miRNA): restoring luciferase reporter expression to near control levels
ISIS 328088: 5-10-5 2′-MOE gapmer, pseudo half-knot compound targeting the mir-30a pri-miRNA (antisense eA*eA*eG*e[5mC]*e[5mC]*d[5mC]*dA*dT*d[5mC]*dT*dG*dT*dG*dG*d[5mC]*eT*eT*e[5mC]*eA*e[5mC]; pseudo half-knot compound) | – | reversing the mir-30a miRNA-mediated silencing of luciferase reporter (mir-30a pri-miRNA): restoring luciferase reporter expression to near control levels
